Earlier results, collected in US20080268045A1, “SUSTAINED RELEASE METHOTREXATE FORMULATIONS AND METHODS OF USE THEREOF” (Proprius Pharmaceuticals, Inc., priority 2006, published 2008).

CN(Cc1cnc2nc(N)nc(N)c2n1)c1ccc(C(=O)N[C@@H](CCC(=O)O)C(=O)O)cc1 [methotrexate]
Bioavailability of orally dosed methotrexate (higher dose strength (10-15 mg/dose)): 30-40%
Bioavailability of orally administered methotrexate (lower dose strength): ≤ 60%
